pEC50, pKd: −log10 of the molar value. Calls of active or inactive are those of the source. The calls are words filed in the database; no cut-off is given here.

For assay [1], the target named is T1, Transketolase (Homo sapiens, UniProt P29401).
T1 sequence (P29401 whole entry): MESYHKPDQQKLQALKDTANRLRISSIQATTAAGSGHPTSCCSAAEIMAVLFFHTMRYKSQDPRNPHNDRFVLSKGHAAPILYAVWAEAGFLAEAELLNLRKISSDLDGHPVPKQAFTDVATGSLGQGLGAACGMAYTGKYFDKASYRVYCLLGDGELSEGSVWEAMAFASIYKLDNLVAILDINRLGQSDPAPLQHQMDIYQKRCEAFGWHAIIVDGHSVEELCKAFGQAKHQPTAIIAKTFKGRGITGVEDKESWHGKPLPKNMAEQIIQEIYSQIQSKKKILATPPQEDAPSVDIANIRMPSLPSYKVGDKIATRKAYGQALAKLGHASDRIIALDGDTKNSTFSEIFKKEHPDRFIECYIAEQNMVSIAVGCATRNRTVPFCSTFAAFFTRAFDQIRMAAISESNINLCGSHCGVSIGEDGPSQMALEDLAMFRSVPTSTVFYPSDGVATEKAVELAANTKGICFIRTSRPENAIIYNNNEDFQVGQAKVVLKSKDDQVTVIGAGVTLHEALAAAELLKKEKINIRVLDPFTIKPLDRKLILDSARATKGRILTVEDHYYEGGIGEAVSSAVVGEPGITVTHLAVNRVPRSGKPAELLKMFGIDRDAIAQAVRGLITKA
Put plainly: Inhibition of transketolase by TPPK/apo-TK coupled assay.

The target in assay [2] is T1, Transketolase. In words: Inhibition of human transketolase in HCT116 cells. It counts as cell-based, HCT-116.
The subject of assay [3] is Mus musculus. Put plainly: Inhibition of transketolase activity in human HCT116 cells xenografted mouse at 100 mg/kg, iv bid for 2 weeks. On the set-up: dose 100 mg/kg. The assay is classed as functional, organism-based. To be noted: HCT-116.
The subject of assay [4] is Mus musculus. In words: Inhibition of alphaKGDH activity in human HCT116 cells xenografted mouse at 100 mg/kg, iv bid for 2 weeks. The assay is classed as functional, organism-based. On the set-up: dose 100 mg/kg. To be noted: HCT-116. On the technique in general: A xenograft is tissue or cells of one species grown in another, often human tumour cells in immunodeficient mice.

The test system of assay [5] is Mus musculus. In words: Inhibition of G6PD activity in human HCT116 cells xenografted mouse at 100 mg/kg, iv bid for 2 weeks. The assay is classed as functional, organism-based. On the set-up: dose 100 mg/kg. The following applies: HCT-116.
The next assay concerns HCT-116. In words: Antitumor activity against human HCT116 cells xenografted mouse assessed as reduction in tumor size at 100 mg/kg, iv bid for 2 weeks. The assay is classed as functional, organism-based. More on the design: dose 100 mg/kg.
Assay [6] concerns the target T1, Transketolase. Put plainly: Binding affinity to apo-transketolase.

`Cc1ccc(C[n+]2csc(C(O)CO)c2C)c(N)n1` (configuration not stated) showed a negative-log Kd (pKd) at Transketolase [1] of 7.28. The pEC50 on Transketolase [2] was 6.52.

Regarding `CCc1sc(CCO)c(C)[n+]1Cc1ccc(C)nc1N`, at Transketolase [1], the negative logarithm of the Kd (pKd) was 7.12. For the same compound, the pEC50 at Transketolase [2] was 7.68.

`Cc1ccc(C[n+]2csc([C@H](O)CO)c2C)c(N)n1` showed a pKd on Transketolase [1] of 7.55. At Transketolase [2], the pEC50 is 7.30.

On Transketolase [2], `CC(=O)OCCc1sc[n+](Cc2ccc(C)nc2N)c1C` had a pEC50 of 8.33.

For `Cc1ccc(C[n+]2c(Cc3cccnc3)sc(CCO)c2C)c(N)n1`, the pEC50 on Transketolase [2] was 6.08.

The compound `COC(=O)CCc1sc[n+](Cc2ccc(C)nc2N)c1C` gave a pEC50 on Transketolase [2] of 5.64.

The compound `Cc1ccc(C[n+]2csc(CCO)c2C)c(N)n1` gave a negative-log Kd (pKd) on Transketolase [1] of 7.48. The pEC50 on Transketolase [2] is 7.59. For the same compound, the result in the assay on Mus musculus [3] and in the assay with Mus musculus [4] was Active. For the same compound, the result with Mus musculus [5] and in the assay with HCT-116 was inactive.

With `Cc1c(CCO)sc[n+]1Cc1ccc(C#N)nc1N`, on Transketolase [1], the pKd was 7.24. The pEC50 on Transketolase [2] is 6.44.

Compound `Cc1c(CCO)sc[n+]1Cc1ccc(C(F)(F)F)nc1` showed a pKd at Transketolase [1] of 6.51. The same compound gave a pEC50 on Transketolase [2] of 6.33.

On Transketolase [1], `Cc1ccc(C[n+]2csc(CCO)c2CO)c(N)n1` showed a pKd of 7.60. Further, the pEC50 at Transketolase [2] is 6.24.

In turn, `Cc1c(CCO)sc[n+]1Cc1c(C(F)(F)F)cc(C(F)(F)F)nc1N` had a pKd on Transketolase [1] of 5.84.

Regarding `Cc1c(CCO)sc[n+]1Cc1ccc(Cl)nc1N`, on Transketolase [1], the pKd is 7.34. This pKd is 1.50 log units higher than that of the compound before.

At Transketolase [1], `Cc1c(CCO)sc[n+]1Cc1ccc(N)nc1` showed a negative logarithm of the Kd (pKd) of 8.15. On Transketolase [2], this compound had a pEC50 of 5.80.

For `Cc1c(CCO)sc[n+]1Cc1ccc(C(=O)c2ccccc2C(=O)O)nc1`, the pKd on Transketolase [1] is 6.85. Moreover, the pEC50 on Transketolase [2] is 5.51.

In turn, `Cc1cc(C)c(C[n+]2csc(CCO)c2C)c(N)n1` showed a negative-log Kd (pKd) at Transketolase [1] of 7.47. The compound also had a pEC50 at Transketolase [2] of 8.08.

For `Cc1c(CCO)sc[n+]1Cc1cc(I)cnc1N`, the negative-log Kd (pKd) at Transketolase [1] is 6.96. In addition, on Transketolase [2], the pEC50 is 6.00.

`Cc1ccc(C[n+]2csc(CCC#N)c2C)c(N)n1` gave a pEC50 at Transketolase [2] of 5.66.

`Cc1c(CCO)sc[n+]1Cc1ccc(C(F)(F)F)nc1N` gave a pKd on Transketolase [1] of 6.98. At Transketolase [2], this compound showed a pEC50 of 6.80.

As for `CCc1ccc(C[n+]2csc(CCO)c2C)c(N)n1`, the pKd on Transketolase [1] is 8.00. This compound also gave a pEC50 on Transketolase [2] of 8.06.

For the compound `CC(=O)Nc1ccc(C[n+]2csc(CCO)c2C)c(N)n1`, the pKd at Transketolase [1] was 7.64. This compound had a pEC50 on Transketolase [2] of 6.10.

In turn, `Cc1ccc(C[n+]2csc(CCOP(=O)(O)OP(=O)(O)O)c2C)c(N)n1` had a pKd at Transketolase [6] of 7.66.

As for `Cc1ccc(C[n+]2csc(CCCO)c2C)c(N)n1`, the pEC50 at Transketolase [2] was 5.89.

For the compound `CCc1c(CCO)sc[n+]1Cc1ccc(C)nc1N`, the pKd on Transketolase [1] is 7.40. For the same compound, the negative logarithm of the EC50 (pEC50) on Transketolase [2] was 6.02.

Consider `Cc1ccc(C[n+]2csc([C@@H](O)CO)c2C)c(N)n1`, for which the pKd on Transketolase [1] is 7.57. On Transketolase [2], the pEC50 was 5.70.

Consider `Cc1c(CCO)sc[n+]1Cc1cnccc1N`, for which, on Transketolase [1], the pKd is 7.19. At Transketolase [2], this compound had a pEC50 of 4.62.

`Cc1cncc(C[n+]2csc(CCO)c2C)c1`: the pKd on Transketolase [1] is 6.66. Besides, on Transketolase [2], the pEC50 is 4.42.

Consider `Cc1ccc(C[n+]2csc(CCO)c2)c(N)n1`, for which the pKd on Transketolase [1] was 7.54.

The compound `Cc1ccc(C[n+]2c(C)sc(CCO)c2C)c(N)n1` showed a pKd on Transketolase [1] of 7.60. This compound showed a pEC50 on Transketolase [2] of 7.25.

In turn, `Cc1ccc(C[n+]2cc(CCO)sc2C)c(N)n1` gave a negative-log Kd (pKd) at Transketolase [1] of 7.44. Besides, the pEC50 at Transketolase [2] is 6.31.

Take `Cc1ccc(C[n+]2c(-c3ccc4c(c3)OCO4)sc(CCO)c2C)c(N)n1`: on Transketolase [2], the negative logarithm of the EC50 (pEC50) is 4.60.

Regarding `Cc1c(CCO)sc[n+]1Cc1cccnc1N`, the pKd on Transketolase [1] was 7.44.

Turning to `Cc1ccc(C[n+]2c(C(C)O)sc(CCO)c2C)c(N)n1` (configuration not stated), the pKd on Transketolase [1] is 6.92. For the same compound, on Transketolase [2], the pEC50 is 7.52.

One may read the pKd as −log10 of the Kd, conventionally taken in molar units. One may read the pEC50 as the negative decadic logarithm of the EC50, by convention in mol/L. Low values mean a large EC50, high ones a small EC50.

The record behind these values is ChEMBL document CHEMBL1143137, “Synthesis, in vitro and in vivo activity of thiamine antagonist transketolase inhibitors” (Bioorg Med Chem Lett, 2008).
